Series [1] deals with bile secretion. Briefly: Cholagogic action, bile secretion (Experimental Example 5). The note with it: intraduodenal. The class given is in vivo, male Wistar rats.
In series [2] the test system is hyperlipemia. Nature of the series: Anti-hyperlipemia test in rats on high fat food (Experimental Example 1). In kind it is in vivo, Male Wistar rats. The conditions noted are these: peroral once a day, two weeks, control 100, Table 1.
The nature of series [3]: Acute toxicity test. The conditions noted are these: mouse, in vivo, ip; male S.P.P. mice, abdominally administered; Table 11. On the procedure:
The acute toxicity test was carried out by abdominally administering each test drug to male S.P.P. mice and determining an LD50 value.

In series [4] the test system is hyperlipemia. Briefly: Anti-hyperlipemia test in rats on high fat food (Experimental Example 4). The class given is in vivo, Male Wistar rats. The note with it: peroral once a day, two weeks, control 100, Table 5. The text has this: Male Wistar rats 6.5 weeks old were allowed to freely intake a high fat food (0.5% cholesterol, 1.0% cholic acid, 20.0% casein, 50.5% cane sugar, 12.0% hardened coconut oil, 4.0% cellulose, 4.0% mineral mixture, 0.5% vitamine mixture, 7.5% white fish meal) in the course of two weeks so as to cause the outbreak of hyperlipemia. The dose of the drug was started simultaneously with the application of the high fat food, and was perorally given once a day through a stomach tube until the end of the experiment. The drugs were all suspended in a cane sugar fatty acid ester and were administered. The oily compounds were adjusted in advance to 100 mg/m.iota. by diethyl ether. A suitable amount was collected at the time of the dose and after diethyl ether was evaporated and removed, it was suspended in a cane sugar fatty acid ester (1% ryoto sugar ester) and was then given. After the final dose of the drug, the rats were fasted for about 18 hours, and the blood was sampled to measure the blood serum lipid. The blood serum lipid was measured by using a TBA-380 bio-chemical analyzer (a product of Toshiba Medical Co.,) unless a particular hindrance occurred.

The mark [5] stands for this setting: 0-1 hour after dose, control 84.1, Table 8.
Where [6] appears, read: 1-2 hour after dose, control 72.5, Table 8.
Setting [7] is: 2-3 hour after dose, control 63.8, Table 8.
The mark [8] stands for this setting: 3-4 hour after dose, control 56.7, Table 8.
Where [9] appears, read: 4-5 hour after dose, control 51.2, Table 8.

SMILES strings stand for the structures.

By LD50 is commonly meant the dose at which mortality reaches 50%.

Take `COC(=O)C1=COC(O)[C@@H]2C(C)=CC[C@H]12` (stereo partly drawn) [Definite Example 9, methyl (4aS, 7aS)-1,4a, 5,7a-tetrahydro-1-hydroxy-7-methylcyclopenta[c]pyran-4-carboxylate]: the “Bile secretion amount, percentage of the hour before dose” value (“Bile secretion amount, percentage” for short) came out at 134.5% in series [1] (setting [5]); 90.9% in series [1] (setting [6]); 76.5% in series [1] (setting [7]); 66.7% in series [1] (setting [8]); 59.4% in series [1] (setting [9]). Moreover, the “Blood serum cholesterol (%)” value in series [2] (10 mg/kg) is given as 93.6%; in series [2] (30 mg/kg), 59.3%; in series [4] (10 mg/kg) it was 70.8%; in series [4] (30 mg/kg), 62.8%. In addition, the “Blood serum triglyceride (%)” value in series [2] (10 mg/kg) is recorded as 74.5%; in series [2] (30 mg/kg), 60.0%. For the same compound, the LD50 in series [3] turned out to be 407 mg/kg.
`COC(=O)C1=COC(O)[C@H]2[C@@H]1CC[C@@H]2C` (stereo partly drawn) [Definite Example 4, methyl (4aS, 7S, 7aR)-1,4a, 5,6,7,7a-hexahydro-1-hydroxy-7-methylcyclopenta[c]pyran-4-carboxylate]: the “Bile secretion amount, percentage” value is 146.9% in series [1] (0-1 hour after dose, control 82.9, Table 6); 150.8% in series [1] (setting [5]); 93.7% in series [1] (setting [6]); 97.8% in series [1] (1-2 hour after dose, control 74.1, Table 6); 74.0% in series [1] (setting [7]); 85.4% in series [1] (2-3 hour after dose, control 66.1, Table 6). The “Bile secretion amount, percentage” value in series [1] (setting [8]) is listed as 63.9%; in series [1] (3-4 hour after dose, control 59.8, Table 6), 77.2%; in series [1] (setting [9]) it was 57.2%; in series [1] (4-5 hour after dose, control 53.3, Table 6) it was 71.8%. For the same compound, the “Blood serum cholesterol (%)” value in series [2] (10 mg/kg) was 73.3%; in series [2] (30 mg/kg), 75.4%; in series [4] (10 mg/kg), 85.3%; in series [4] (30 mg/kg), 75.0%. Besides, the “Blood serum triglyceride (%)” value in series [2] (10 mg/kg) was 86.0%; in series [2] (30 mg/kg), 91.0%.

The values above are taken from patent US5459160A, “Iridoid derivatives and the use thereof as a drug” (Tsumura & Co., priority 1990, dated 1995).
